From patent US20100286247A1, “Methods of Protection from Oxidative Stress” (Trustees of Boston University, priority 2005, published 2010)
Entries after “also recorded” stand apart in the source; their conditions may differ. {P} = phosphate

Columns and labels:
[1] = system: intracellular ROS in normal newborn human dermal fibroblasts; assay: Dichlorofluorescein diacetate (DCF) assay of intracellular ROS, FACScan; assay type: cell-based; settings: for DCF fluorescence (intracellular ROS) compared to diluent: 100 μM pTT / pCC, 40 μM TO / TOC1 / TOC2
Description: Normal newborn human dermal fibroblasts were cultured from foreskin specimens into DMEM supplemented with 10% CS as described above. Due to the large number of cells needed for time course experiments, and to minimize donor variability, in dichlorofluorescein diacetate FACS experiments cells from three different donors were combined.
Purified lyophilized oligonucleotides were obtained and prepared for cell treatment as described above. All treatments involved a single stimulation with T-oligo, after which cells were harvested at various times without medium changes or addition of more T-oligo. Treatment doses were 100 μM pTT and 40 μM TO except in dose-response experiments; these concentrations were determined in previous experiments to be optimal for measuring DNA damage responses using these T-oligos.^142,150,228
Complementary and scrambled oligonucleotides were chosen for each T-oligo. pAA and pCC were used as controls for pTT, and the complementary 11-base pCTAACCCTAAC (TOC1, SEQ ID NO: 22) and a scrambled sequence pGATCGATCGAT (TOC2, SEQ ID NO: 23) were used as controls for the T-oligo TO.
(§1) H2DCFDA stock solution (1 mg/ml) was thawed and diluted in Hanks' Balanced Salt Solution, 1× liquid without phenol red (GIBCO Invitrogen, Carlsbad, Calif.), to a working concentration of 100 μM immediately before use. H2DCFDA is converted by intracellular esterases to dichlorofiuorescein (DCF). When oxidized by intracellular ROS, it will fluoresce at 530 nm when excited by 480 nm light. […] All work involving DCF was conducted in minimal room light. Peaks on FACScan plots that shift to the right indicate greater fluorescence and increased ROS levels. For NADPH oxidase inhibitor studies using DPI,^237,239 the DPI stock solution was added directly to DCF treatment solution to achieve a final DPI treatment concentration of 50 μM.
Hydrogen peroxide positive controls were used to rule out saturation of the DCF probe in the T-oligo dose response experiments. Fibroblasts were exposed to 1 mM, 5 mM and 10 mM H2O2 solutions in PBS for 15 minutes following DCF incubation for 30 minutes, harvested and analyzed as described above.
The horseradish peroxidase assay data was analyzed by one-way ANOVA. DCF assay FACScan results were analyzed using Cellquest software (Becton-Dickinson, Calif.). All peak positions on x-axis of the fluorescence histogram plot were determined visually (using the software) and recorded as a number. Peak position values were then compared using one-way ANOVA.

NAD(P)H oxidase = assay: DCF assay with NADPH oxidase inhibitor DPI; assay type: cell-based, human; settings: 50 μM DPI in DCF solution; pTT or TO treated fibroblasts
Description: as §1
Because p53-dependent ROS production in fibroblasts has been attributed to NAD(P)H oxidase activity,^169 a specific NADPH oxidase inhibitor, diphenyliodonium chloride (DPI),^239 was added to the DCF assay medium to determine the role of NADPH oxidases in T-oligo mediated ROS induction.

Compound | DCF fluorescence (intracellular ROS) compared to diluent [1] | further results
pCTAACCCTAAC (5' {P}, sugars by position and backbone not given here) [TOC1, complementary 11-base control oligonucleotide for TO, reference compound] | not significantly different from each other | –
pGATCGATCGAT (5' {P}, sugars by position and backbone not given here) [TOC2, reference compound] | not significantly different from each other; also recorded: overlapping with diluent curve | –
OO [H2O2, Hydrogen peroxide, reference compound] | – | DCF peak shift of positive control ([1]; 1 mM H2O2 for 15 minutes): greater shift than any of the T-oligo treatments
[Cl-].c1ccc([I+]c2ccccc2)cc1 [DPI, diphenyliodonium chloride] | – | effect of DPI on T-oligo-stimulated ROS (DCF fluorescence) (NAD(P)H oxidase): consistently abrogated the increase in ROS stimulated by T-oligos
